From PMC9024893, “1,2,4-Trioxolane and 1,2,4,5-Tetraoxane Endoperoxides against Old-World Leishmania Parasites: In Vitro Activity and Mode of Action” (Pharmaceuticals, 2022)

Assays:
[1] = test system: L. donovani BD14 promastigotes; test: Promastigotes susceptibility assay (MTT), L. donovani; type: cell-based; conditions: Leishmania donovani; 48 h incubation, MTT; read-out: IC50 ± SD, L. donovani promastigotes
Method: (§1) Promastigote forms of strains of L. infantum (MHOM/PT/1988/IMT151) and L. donovani (MHOM/BD/2006/BD14) were cultured at 24 °C ± 1 °C in M199 medium (Sigma) supplemented with 20% foetal bovine serum (FBS, Sigma) and 1% penicillin-streptomycin (Sigma). L. infantum strain belongs to IHMT, Portugal cryobank collection and the L. donovani strain was kindly provided by Dr. Katrin Kuhls, Technical University of Applied Sciences Wildau, Germany. Promastigotes used for the experiments had 7 to 12 in vitro passages in culture after isolation from mice, in order to keep virulence, and were used when the stationary phase of growth was reached (day 5 to 6), corresponding to the highest promastigotes density.
(§2) For the determination of the antileishmanial activity and IC50, promastigotes of L. infantum and L. donovani were plated in 96-well flat bottom culture plates at a concentration of 5 × 10^6 parasites/mL and incubated with six serial concentrations of each compound (Table 3), in four replicates, including the control drugs, amphotericin B, miltefosine and pentamidine. One untreated control (parasites with M199 medium plus 0.5% DMSO as vehicle solution) and one blank (M199 medium alone) were also plated out in quadruplicate. After 48 h incubation at 24 °C ± 1 °C, the inhibitory activity of the compounds was evaluated using the MTT, as previously described, with an additional 4 h incubation at 36 °C. Results were expressed in terms of percentage of parasite viability relative to nontreated control and IC50 was calculated fitting the data as a non-linear regression with variable slope using a dose-response inhibitory model, in the GraphPad Prism V 8.0 program. Each compound was tested in three independent assays. […]

[2] = test system: L. donovani BD14 intracellular amastigotes; test: Intracellular amastigotes assay in J774A.1 macrophages, L. donovani; type: cell-based; conditions: Leishmania donovani, J774.A1; 48 h incubation, J774A.1 host cells; read-out: IC50 ± SD, L. donovani intracellular amastigotes
Method: The intracellular assay using the macrophage J774A.1 cell line was performed with the compounds that presented best SI on the promastigote’s susceptibility assay. J774A.1 cells were adjusted to 2.5 × 10^5 cells/mL in supplemented DMEM medium. 200 μL/well of the cell suspension was placed in 16 well Lab Tek culture glass slides (Nunc), and incubated at 37 °C ± 1 °C, 5% CO2, for 3 h, to enable the cells to adhere to the slides. After a washing step with DMEM to discard non-attached cells, the cells were infected with 2.5 × 10^6 cells/mL promastigotes in a 10:1 parasite-host cell proportion for 24 h. Compounds and control drugs were added in two replicates of six serial concentrations (Table 3). As negative control, macrophages were cultivated in medium and DMSO, as vehicle solution (0.5% v/v). Slides were incubated for 48 h at the same temperature. After a washing step with 1× PBS (Sigma), slides were fixed and stained, and the infection index was calculated according to [34] by counting the number of intracellular amastigotes per 100 macrophages, in treated and untreated cells. Two independent experiments were performed to determine the amastigotes IC50 of each compound, which was calculated by fitting the data as a non-linear regression with variable slope using a dose-response inhibitory model, in the GraphPad Prism V 8.0 program. SI was determined as described above.

[3] = test system: L. infantum IMT151 promastigotes; test: Promastigotes susceptibility assay (MTT), L. infantum; type: cell-based; conditions: Leishmania infantum; 48 h incubation, MTT; read-out: IC50 ± SD, L. infantum promastigotes
Method: as §1, §2

[4] = test system: L. infantum promastigotes; test: Flow cytometry analysis of mitochondrial membrane potential (JC-1); type: cell-based, Leishmania infantum; conditions: 24 h
Method: (§3) The L. infantum strain (MHOM/PT/1988/IMT151) was chosen for the cytometry analysis and promastigotes at a concentration of 1 × 10^7 parasites/mL were tested against the three compounds evaluated in the intracellular amastigotes assay (LC132, LC137 and LC138). Flow cytometry analysis were performed in a CytoFlex flow cytometer (Beckman Coulter), at an excitation wavelength of 488 nm (blue laser). Data acquisition were collected and registered using channels FL1 (flurescein isothiocyanate, FITC) with a BP filter (525 ± 40 nm) for Fluorescein and FL2 (IP) with a BP filter (570 ± 20 nm) for propidium iodide (PI) and 10,000 total events per sample were analysed using CytExpert v2.0.0.153 software. Samples were analysed in triplicates and two to three independent experiments were performed. Values are expressed as a percentage of cells for a given marker, relatively to the number of cells analysed ± standard error of mean (SEM).
Mitochondrial damage was evaluated through the analysis of the mitochondrial membrane potential with MitoProbe™ JC-1 Assay Kit for Flow Cytometry (Molecular Probes, Invitrogen). Treated L. infantum promastigotes were incubated with IC50 and 2 × IC50 of the tested compounds and amphotericin B for 24 h, at 24 °C ± 1 °C. […] Cells were analysed by flow cytometry. […]

[5] = test system: L. infantum promastigotes; test: Promastigotes DNA fragmentation (agarose gel); type: cell-based, Leishmania infantum; conditions: IC50 concentrations, 24 h
Method: 2 mM H2O2 was used as DNA damage inductor and non-treated cells were used as control. After centrifugation (10 min, 800× g) DNA was extracted using a commercial extraction kit (High Template DNA Preparation Kit, Roche, Germany), according to the manufacturer’s instructions.

[6] = test system: L. infantum promastigotes; test: Flow cytometry detection of reactive oxygen species (CM-H2DCFDA); type: cell-based, Leishmania infantum; conditions: 2 × IC50, 5 h
Method: as §3
For the detection of reactive oxygen species (ROS), a cell permeable probe CM-H2DCFDA (5 µg/mL Molecular Probes, Invitrogen) was used. Briefly, promastigotes were incubated with IC50 and 2 × IC50 of the tested compounds and amphotericin B for 5 h and 24 h, at 24 °C. […] Parasites were resuspended in normal medium (M199 medium) and fluorescence was measured by flow cytometry (blue laser), and the signals registered in the FL1/FITC channel.

IC50 [1] [µM]	IC50 [3] [µM]	SMILES	IC50 [2] [µM]	population percentage of JC-1 aggregates ([4]; 2 × IC50 concentration) [%]	population percentage of JC-1 aggregates ([4]; IC50 concentration) [%]	genomic DNA fragmentation [5]	ROS levels (FITC+), early phase of exposure [6]
0.3	0.2	C[C@@H]1[C@H](O)[C@@H](C)/C=C/C=C/C=C/C=C/C=C/C=C/C=C/[C@H](O[C@@H]2O[C@H](C)[C@@H](O)[C@H](N)[C@@H]2O)C[C@@H]2O[C@](O)(C[C@@H](O)C[C@@H](O)[C@H](O)CC[C@@H](O)C[C@@H](O)CC(=O)O[C@H]1C)C[C@H](O)[C@H]2C(=O)O [AmB, amphotericin B, reference compound]	0.1	69.1	64.9	–	–
240 ± 34.8	125 ± 1.6	CCOC(=O)C1CCC2(CC1)OOC1(OO2)C2CC3CC(C2)CC1C3 (stereo not shown) [LC138]	426 ± 25.5	–	–	did not produce DNA fragmentation	slight increase
